Test system: TXA2 agonist activity
Test: Absence of Agonist Activity (pressor response in pithed rats)
Type: in vivo
Text: 3. Absence of Agonist Activity.

Structure (SMILES)	pressor response following i.v. administration (i.v., doses up to 10 mg/kg)	increase in the mean arterial pressure (0.1 mg/kg i.v., at one minute after dosing)
O=C(O)CCCC/C=C(\c1ccc(-c2nc(C(=O)NCCCCC3CCCCC3)co2)cc1)c1cccnc1 [Example 2, (E)-7-[4-[4-[[(4-Cyclohexylbutyl)amino]carbonyl]-2-oxazolyl]phenyl]-7-(3-pyridyl)hept-6-enoic Acid]	absence of a pressor response	–
O=C(O)CCC/C=C\CC1C2CCC(C2)C1NS(=O)(=O)c1ccccc1 (centres unmarked) [Example S-145]	–	transient, but significant, increase in the mean arterial pressure

— US5849922A, “Preparation of substituted alkenoic acids” (Eli Lilly and Company, priority 1997, dated 1998)
